Measurements as given in US20250276983A1, “COMPOUNDS AND METHODS FOR MODULATING HER2” (IAMBIC THERAPEUTICS, INC., priority 2022, published 2025).
Where two headings read alike, the source gives them in different places.

What was measured:
Type in all cases: cell-based
BaF3_HER2WT cells = assay: Cell growth inhibition assay, BaF3_HER2WT; conditions: 3 days treatment, CellTiterGlo 2.0, read-out: HER2 WT IC50 (nM), cell growth inhibition
BaF3_EGFRWT cells = assay: Cell growth inhibition assay, BaF3_EGFRWT; conditions: 80 ng/mL recombinant human EGF, 3 days treatment, CellTiterGlo 2.0, read-out: EGFR WT IC50 (nM), cell growth inhibition
BaF3_HER2YVMA cells = assay: Cell growth inhibition assay, BaF3_HER2YVMA; conditions: BaF3_HER2YVMA cells, 3 days treatment, CellTiterGlo 2.0, read-out: HER2-YVMA IC50 (nM), cell growth inhibition

| SMILES | IC50 (BaF3_HER2WT cells; 72 h) | IC50 (BaF3_EGFRWT cells; 72 h) | IC50 (BaF3_HER2YVMA cells; 72 h) | IC50 (BaF3_EGFRWT cells) | IC50 (BaF3_HER2WT cells) | IC50 (BaF3_HER2YVMA cells) |
| --- | --- | --- | --- | --- | --- | --- |
| COC1CCN(C/C=C/C(=O)N2CC(c3ccn4ncnc(Nc5ccc(Oc6ccn7ncnc7c6)c(C)c5)c34)C2)CC1 [Example 42, (E)-1-(3-(4-((4-([1,2,4]triazolo[1,5-a]pyridin-7-yloxy)-3-methylphenyl)amino)pyrrolo[2,1-f][1,2,4]triazin-5-yl)azetidin-1-yl)-4-(4-methoxypiperidin-1-yl)but-2-en-1-one] | < 200 nM | 1500 to 5000 nM | < 200 nM |  |  |  |
| Cc1cc(Nc2ncnn3ccc(C4CC5CCC(C4)N5C(=O)/C=C/CN(C)C)c23)ccc1Oc1ccn2ncnc2c1 (single isomer, unassigned) [Examples 122 and 123, first eluting isomer, (E)-1-(-3-(4-((4-([1,2,4]triazolo[1,5-a]pyridin-7-yloxy)-3-methylphenyl)amino)pyrrolo[2,1-f][1,2,4]triazin-5-yl)-8-azabicyclo[3.2.1]octan-8-yl)-4-(dimethylamino)but-2-en-1-one] | < 200 nM |  | < 200 nM | 500 to 1500 nM |  |  |
| COC/C=C/C(=O)N1CCC(c2ccn3ncnc(Nc4ccc(Oc5ccn6ncnc6c5)c(C)c4)c23)CC1 [Example 58, (E)-1-(4-(4-((4-([1,2,4]triazolo[1,5-a]pyridin-7-yloxy)-3-methylphenyl)amino)pyrrolo[2,1-f][1,2,4]triazin-5-yl)piperidin-1-yl)-4-methoxybut-2-en-1-one] | < 200 nM | 1500 to 5000 nM | 500 to 1500 nM |  |  |  |
| C=C(C(=O)O)C(=O)N1CCC(c2ccn3ncnc(Nc4ccc(Oc5ccn6ncnc6c5)c(C)c4)c23)CC1 [Example 20, 2-(4-(4-((4-([1,2,4]triazolo[1,5-a]pyridin-7-yloxy)-3-methylphenyl)amino)pyrrolo[2,1-f][1,2,4]triazin-5-yl)piperidine-1-carbonyl)acrylic acid] | 1500 to 5000 nM | 1500 to 5000 nM | 1500 to 5000 nM |  |  |  |
| Cc1cc(Nc2ncnn3ccc(C4CC5CCC(C4)N5C(=O)/C=C/CN(C)C)c23)ccc1Oc1ccn2ncnc2c1 (single isomer, unassigned) [Examples 122 and 123, second eluting isomer, (E)-1-(3-(4-((4-([1,2,4]triazolo[1,5-a]pyridin-7-yloxy)-3-methylphenyl)amino)pyrrolo[2,1-f][1,2,4]triazin-5-yl)-8-azabicyclo[3.2.1]octan-8-yl)-4-(dimethylamino)but-2-en-1-one] |  |  |  | 1500 to 5000 nM | < 200 nM | 200 to 500 nM |
| C=C(CN(C)C)C(=O)N1CC2CCC(C1)N2c1ccn2ncnc(Nc3ccc(Oc4ccn5ncnc5c4)c(C)c3)c12 [Example 49, 1-(8-(4-((4-([1,2,4]triazolo[1,5-a]pyridin-7-yloxy)-3-methylphenyl)amino)pyrrolo[2,1-f][1,2,4]triazin-5-yl)-3,8-diazabicyclo[3.2.1]octan-3-yl)-2-((dimethylamino)methyl)prop-2-en-1-one acetate] | < 200 nM | 1500 to 5000 nM | < 200 nM |  |  |  |
| C=CC(=O)N1CC2(CC(c3ccn4ncnc(Nc5ccc(Oc6ccn7ncnc7c6)c(C)c5)c34)C2)C1 [Example 17, 1-(6-(4-((4-([1,2,4]triazolo[1,5-a]pyridin-7-yloxy)-3-methylphenyl)amino)pyrrolo[2,1-f][1,2,4]triazin-5-yl)-2-azaspiro[3.3]heptan-2-yl)prop-2-en-1-one] | < 200 nM | 1500 to 5000 nM | < 200 nM |  |  |  |
| Cc1cc(Nc2ncnn3ccc(C4CCN(C(=O)/C=C/CN(C)C)C4)c23)ccc1Oc1ccn2ncnc2c1 (single isomer, unassigned) [Examples 99 and 100, second eluting isomer, (E)-1-(3-(4-((4-([1,2,4]triazolo[1,5-a]pyridin-7-yloxy)-3-methylphenyl)amino)pyrrolo[2,1-f][1,2,4]triazin-5-yl)pyrrolidin-1-yl)-4-(dimethylamino)but-2-en-1-one] |  |  |  | 1500 to 5000 nM | < 200 nM | 500 to 1500 nM |
| Cc1cc(Nc2ncnn3ccc(C4(O)CCN(C(=O)/C=C/CN(C)C)CC4)c23)ccc1Oc1ccn2ncnc2c1 [Example 50, (E)-1-(4-(4-((4-([1,2,4]triazolo[1,5-a]pyridin-7-yloxy)-3-methylphenyl)amino)pyrrolo[2,1-f][1,2,4]triazin-5-yl)-4-hydroxypiperidin-1-yl)-4-(dimethylamino)but-2-en-1-one] | 200 to 500 nM | 1500 to 5000 nM | 500 to 1500 nM |  |  |  |
| COC/C=C/C(=O)N1CC(c2ccn3ncnc(Nc4ccc(Oc5ccn6ncnc6c5)c(C)c4)c23)C1 [Example 40, (E)-1-(3-(4-((4-([1,2,4]triazolo[1,5-a]pyridin-7-yloxy)-3-methylphenyl)amino)pyrrolo[2,1-f][1,2,4]triazin-5-yl)azetidin-1-yl)-4-methoxybut-2-en-1-one] | 200 to 500 nM | 1500 to 5000 nM | 200 to 500 nM |  |  |  |
| C=C(CN(C)C)C(=O)N1C2CCC1CC(c1ccn3ncnc(Nc4ccc(Oc5ccn6ncnc6c5)c(C)c4)c13)C2 (single isomer, unassigned) [Examples 126 and 127, first eluting isomer, 1-(3-(4-((4-([1,2,4]triazolo[1,5-a]pyridin-7-yloxy)-3-methylphenyl)amino)pyrrolo[2,1-f][1,2,4]triazin-5-yl)-8-azabicyclo[3.2.1]octan-8-yl)-2-((dimethylamino)methyl)prop-2-en-1-one] | < 200 nM | 1500 to 5000 nM |  |  |  | 200 to 500 nM |

More lines, main results first:

| IC50 (BaF3_HER2WT cells; 72 h) | IC50 (BaF3_EGFRWT cells; 72 h) | IC50 (BaF3_HER2YVMA cells; 72 h) | SMILES | IC50 (BaF3_EGFRWT cells) | IC50 (BaF3_HER2WT cells) | IC50 (BaF3_HER2YVMA cells) |
| --- | --- | --- | --- | --- | --- | --- |
| < 200 nM | 500 to 1500 nM | < 200 nM | C=CC(=O)N1CCN(c2ccn3ncnc(Nc4ccc(Oc5ccc6c(c5)ncn6C)c(C)c4)c23)CC1 [Example 121, 1-(4-(4-((3-methyl-4-((1-methyl-1H-benzo[d]imidazol-5-yl)oxy)phenyl)amino)pyrrolo[2,1-f][1,2,4]triazin-5-yl)piperazin-1-yl)prop-2-en-1-one] |  |  |  |
| < 200 nM | 1500 to 5000 nM | 200 to 500 nM | C=CC(=O)NC1CCN(c2ccn3ncnc(Nc4ccc(Oc5ccn6ncnc6c5)c(C)c4)c23)CC1 [Example 78, N-(1-(4-((4-([1,2,4]triazolo[1,5-a]pyridin-7-yloxy)-3-methylphenyl)amino)pyrrolo[2,1-f][1,2,4]triazin-5-yl)piperidin-4-yl)acrylamide] |  |  |  |
| < 200 nM | 1500 to 5000 nM | < 200 nM | Cc1cc(Nc2ncnn3ccc(C4CCN(C(=O)/C=C/C5CCCN5C)CC4)c23)ccc1Oc1ccn2ncnc2c1 (stereo not drawn) [Example 65, (E)-1-(4-(4-((4-([1,2,4]triazolo[1,5-a]pyridin-7-yloxy)-3-methylphenyl)amino)pyrrolo[2,1-f][1,2,4]triazin-5-yl)piperidin-1-yl)-3-(1-methylpyrrolidin-2-yl)prop-2-en-1-one] |  |  |  |
| 500 to 1500 nM | 1500 to 5000 nM | 1500 to 5000 nM | Cc1cc(Nc2ncnn3ccc(C4CC5CCC4CN5C(=O)/C=C/CN(C)C)c23)ccc1Oc1ccn2ncnc2c1 (single isomer, unassigned) [Examples 137 and 138, second eluting isomer, (E)-1-(5-(4-((4-([1,2,4]triazolo[1,5-a]pyridin-7-yloxy)-3-methylphenyl)amino)pyrrolo[2,1-f][1,2,4]triazin-5-yl)-2-azabicyclo[2.2.2]octan-2-yl)-4-(dimethylamino)but-2-en-1-one] |  |  |  |
| < 200 nM | 1500 to 5000 nM | < 200 nM | Cc1cc(Nc2ncnn3ccc(C4CCN(C(=O)/C=C/CN5CCC6(COC6)C5)CC4)c23)ccc1Oc1ccc2c(c1)ncn2C [Example 129, (E)-1-(4-(4-((3-methyl-4-((1-methyl-1H-benzo[d]imidazol-5-yl)-oxy)phenyl)amino)-pyrrolo[2,1-f][1,2,4]triazin-5-yl)piperidin-1-yl)-4-(2-oxa-6-azaspiro[3.4]octan-6-yl)but-2-en-1-one] |  |  |  |
| < 200 nM | 1500 to 5000 nM | < 200 nM | Cc1cc(Nc2ncnn3cc(F)c(C4CCN(C(=O)/C=C/CN(C)C)CC4)c23)ccc1Oc1ccn2ncnc2c1 [Example 152, (E)-1-(4-(4-((4-([1,2,4]triazolo[1,5-a]pyridin-7-yloxy)-3-methylphenyl)amino)-6-fluoropyrrolo[2,1-f][1,2,4]triazin-5-yl)piperidin-1-yl)-4-(dimethylamino)but-2-en-1-one] |  |  |  |
| < 200 nM | 1500 to 5000 nM | < 200 nM | Cc1cc(Nc2ncnn3ccc(C4CCN(C(=O)/C=C/CN5CC(F)C5)CC4)c23)ccc1Oc1ccn2ncnc2c1 [Example 163] |  |  |  |
| 1500 to 5000 nM | 1500 to 5000 nM | 1500 to 5000 nM | Cc1cc(Nc2ncnn3ccc(C4(F)CCN(C(=O)/C=C/CN(C)C)CC4)c23)ccc1Oc1ccn2ncnc2c1 [Example 175, (E)-1-(4-(4-((4-([1,2,4]triazolo[1,5-a]pyridin-7-yloxy)-3-methylphenyl)amino)pyrrolo[2,1-f][1,2,4]triazin-5-yl)-4-fluoropiperidin-1-yl)-4-(dimethylamino)but-2-en-1-one] |  |  |  |
| < 200 nM | 1500 to 5000 nM | < 200 nM | Cc1cc(Nc2ncnn3ccc(C4CN(C(=O)/C=C/CN5CCC(F)CC5)C4)c23)ccc1Oc1ccn2ncnc2c1 [Example 62, (E)-1-(3-(4-((4-([1,2,4]triazolo[1,5-a]pyridin-7-yloxy)-3-methylphenyl)amino)pyrrolo[2,1-f][1,2,4]triazin-5-yl)azetidin-1-yl)-4-(4-fluoropiperidin-1-yl)but-2-en-1-one] |  |  |  |
| < 200 nM | 1500 to 5000 nM | 200 to 500 nM | C=CC(=O)NC1CCN(c2ccn3ncnc(Nc4ccc(Oc5ccn6ncnc6c5)c(C)c4)c23)C1 (stereo not drawn) [Example 79, N-(1-(4-((4-([1,2,4]triazolo[1,5-a]pyridin-7-yloxy)-3-methylphenyl)amino)pyrrolo[2,1-f][1,2,4]triazin-5-yl)pyrrolidin-3-yl)acrylamide] |  |  |  |
